Data: patent US20060058359A1, “Compounds useful as pesticides” (priority 2002, published 2006)

Legend:
[1] = tested on: Cotton Aphid (Aphis gossypii); assay: Testing with Cotton Aphid (squash cotyledon foliar spray assay); format: in vivo; details: foliar spray on squash, 3 days after application
Text: Yellow crookneck squash, Cucurbita pepo, is planted in 3 inch pots and placed in a greenhouse. Plants are watered regularly for 5 to 7 days until they reach the first emergent leaf stage. Plants are then trimmed to a single cotyledon. The squash assay consists of four squash plants per treatment with each plant cotyledon considered a replicate. Four additional plants are used as a control treatment (receiving solvent blank application only). Twenty-four hours prior to application, a leaf section of heavily infested squash plant from the aphid colony is placed onto each cotyledon, allowing a mixed population of A. gossypii nymphs and adults to migrate and infest the test plants. The pre-infested squash cotyledons are sprayed on both the upper and lower surfaces using an airbrush sprayer set at 2 psi. Formulation is an aqueous solution containing 5% solvent and 0.025% Tween 20 surfactant to yield concentrations of 50 ppm and 5 ppm of the test compound. Plants are sprayed to runoff. Tests are held in ambient laboratory temperatures for three days. At 3 days after application (DM) the number of live aphids are counted with the aid of a dissecting microscope. The number of live aphids in the treatment is compared to the number of live aphids in the solvent blank-treated controls and percent mortality is calculated.

[2] = tested on: Cat Flea (Cntenocephalides felis); assay: Testing with Cat Flea (treated media assay); format: in vivo; details: 0.1 μg/g rate in media, infested with eggs, adults counted after five weeks vs acetone only
Description: Media is prepared by mixing 1 part dried bovine blood, 4 parts ground dog food pellets, and 95 parts clean sand. Compounds are dissolved in acetone and further diluted in acetone to yield the required range of concentrations. The acetone solutions are applied to measured amounts of media in small dishes. Final concentrations are expressed as micrograms of compound per gram of media. After the acetone has dried, the treated media is dispensed into small glass vials and infested with 5 to 10 cat flea (Cntenocephalides felis) eggs. The vials are loosely capped and held under controlled conditions for five weeks. Activity is assessed based on the average number of adult cat fleas present in the treated vials compared to the average number of adult cat fleas in the media treated with acetone only.

## C/N=C(/C(=CN(C)C)[N+](=O)[O-])N(C)Cc1ccc(Cl)nc1 [Compound One]
[1]; 5 parts per million
  percent mortality: 100%
[1]; 50 parts per million
  percent mortality: 100%
[2]
  control of cat fleas: 90%

## C/N=C(/C(=CNc1ccccc1)[N+](=O)[O-])N(C)Cc1ccc(Cl)nc1 [Compound Three]
[1]; 5 parts per million
  percent mortality: 100%
[1]; 50 parts per million
  percent mortality: 100%
[2]
  control of cat fleas: 38%
